What was measured:
Assay type in all cases: cell-based
[1] = tested on: PGF2α induced contractions in the isolated gravid rat uterus; assay: PGF2α induced contractions, isolated gravid rat uterus (isometric, non-cumulative dose response); conditions: for inhibition at 40 µg/mL / inhibition at 80 µg/mL / inhibition at 160 µg/mL: Rattus norvegicus; for inhibition at 40 µg/mL: compound 40 μg/ml; for inhibition at 80 µg/mL: compound 80 μg/ml; for inhibition at 160 µg/mL: compound 160 μg/ml
Description: (§1) Female virgin Wistar rats at an average weight of 160 g to 220 g are used for the experiment. Prior to the experiment, the animals are housed five per group and maintained according to standard animal husbandry procedures. The animals are treated with DES (100 mg/kg/body weight) 24 hours prior to the experiment.
(§2) The stage of the estrus cycle is determined by vaginal smears on the morning of the experiment. Rats in estrus are killed by a blow on the head and the abdomen is opened. The two horns of the uterus are dissected out and transferred to a dish containing Bathing's solution (composition in g: NaCL, 8.046; KCl, 0.20; CaCl2.2H2 O, 0.132; MgCl2.6H2 O, 0.106; NaHCO3, 1.0; NaH2 PO4, 0.065; Dextrose, 1.0 distilled to 1 liter with distilled water). The two horns are separated and freed from mesentery in Bathing's solution. A thread is attached at each end of each horn and the uterine segment is mounted in a tissue bath (50 ml), maintained at 37° C. by a circulatory bath and aerated with 95% O2 5% CO2. One thread is attached to a fixed pin and the other to a transducer. Contractions are recorded isometrically on a Beckman dynograph in conjunction with a Grass force-displacement transducer (FTO3C) of which has been calibrated in g. tension, or isotonically in conjunction with a Harvard smooth muscle transducer (386). The tissue is subjected to a baseline tension of 0.5 g. The preparation is allowed to equilibrate for 30 minutes prior to the experiment.
(§3) Various spasmogens (such as: acetylcholine chloride, PGF2a, PGE2, oxytocin, BaCl2 or ergonivine maleate) may be used to induce contractions in the isolated uterine strip. See "In Vitro Methodology for Evaluation of Compound Effect on Isolated Guinea Pig Ileum" for description of obtaining dose response curve. Afer the control dose-response curve is obtained, the tissue is allowed to relax for five minutes before the addition of the spasmolytic drug (inhibitory drug). The test drug is in contact with the tissue for two minutes before the dose-response curve is repeated. The inhibitory effect of the test drug is determined as follows: [formula]
(§4) The % maximum response is calculated for each dose of the dose-response curve and the control and drug curves are plotted.
(§5) The dose-response behavior on the isolated gravid rat uterus of Acetylcholine chloride, Oxytocin and PGF2a was compared in the presence and absence of varying doses of 1-(2',6'-dimethylphenyl)-3-methylamidinourea hydrochloride using the non-cumulative dose response method.

[2] = tested on: Oxytocin induced contractions in the isolated gravid rat uterus; assay: Oxytocin induced contractions, isolated gravid rat uterus (isometric, non-cumulative dose response); conditions: for inhibition at 40 µg/mL / inhibition at 80 µg/mL / inhibition at 160 µg/mL: Rattus norvegicus; for inhibition at 40 µg/mL: compound 40 μg/ml; for inhibition at 80 µg/mL: compound 80 μg/ml; for inhibition at 160 µg/mL: compound 160 μg/ml
Description: as §1, §2, §3, §4, §5

[3] = tested on: Ach induced contractions in the isolated gravid rat uterus; assay: Ach induced contractions, isolated gravid rat uterus (isometric, non-cumulative dose response); conditions: for inhibition at 160 µg/mL / inhibition at 40 µg/mL / inhibition at 80 µg/mL: Rattus norvegicus; for inhibition at 40 µg/mL: compound 40 μg/ml; for inhibition at 80 µg/mL: compound 80 μg/ml
Description: as §1, §2, §3, §4, §5

[4] = increasing doses of compound, in vitro gravid rat uterus

CNC(=N)NC(=O)Nc1c(C)cccc1C.Cl [1-(2',6'-dimethylphenyl)-3-methylamidinourea hydrochloride]
inhibition at 40 µg/mL ([1]; PGF2α 1 × 10^-7 M): 39.5% | inhibition at 40 µg/mL ([1]; PGF2α 1 × 10^-8 M): 99% | inhibition at 40 µg/mL ([1]; PGF2α 3 × 10^-7 M): < 39.5% | inhibition at 40 µg/mL ([1]; PGF2α 3 × 10^-8 M): 95.1% | inhibition at 80 µg/mL ([1]; PGF2α 1 × 10^-6 M): < 48.9% | inhibition at 80 µg/mL ([1]; PGF2α 1 × 10^-7 M): 64% | inhibition at 80 µg/mL ([1]; PGF2α 1 × 10^-8 M): 98.2% | inhibition at 80 µg/mL ([1]; PGF2α 3 × 10^-7 M): 48.9% | inhibition at 80 µg/mL ([1]; PGF2α 3 × 10^-8 M): 91.3% | inhibition at 160 µg/mL ([1]; PGF2α 1 × 10^-6 M): 96.1% | inhibition at 160 µg/mL ([1]; PGF2α 1 × 10^-7 M): 98.5% | inhibition at 160 µg/mL ([1]; PGF2α 1 × 10^-8 M): 100% | inhibition at 160 µg/mL ([1]; PGF2α 3 × 10^-6 M): 86.8% | inhibition at 160 µg/mL ([1]; PGF2α 3 × 10^-7 M): 96.1% | inhibition at 160 µg/mL ([1]; PGF2α 3 × 10^-8 M): 100% | inhibition of PGF2a induced contractions (in words) [1, 4]: dose dependent | inhibition at 40 µg/mL ([2]; Oxytocin 1 × 10^-4 U/ml): < 22.1% | inhibition at 40 µg/mL ([2]; Oxytocin 1 × 10^-5 U/ml): 100% | inhibition at 40 µg/mL ([2]; Oxytocin 3 × 10^-5 U/ml): 22.1% | inhibition at 80 µg/mL ([2]; Oxytocin 1 × 10^-4 U/ml): 14.4% | inhibition at 80 µg/mL ([2]; Oxytocin 1 × 10^-5 U/ml): 100% | inhibition at 80 µg/mL ([2]; Oxytocin 3 × 10^-4 U/ml): < 14.4% | inhibition at 80 µg/mL ([2]; Oxytocin 3 × 10^-5 U/ml): 48.7% | inhibition at 160 µg/mL ([2]; Oxytocin 1 × 10^-3 U/ml): 47.6% | inhibition at 160 µg/mL ([2]; Oxytocin 1 × 10^-4 U/ml): 100% | inhibition at 160 µg/mL ([2]; Oxytocin 1 × 10^-5 U/ml): 100% | inhibition at 160 µg/mL ([2]; Oxytocin 3 × 10^-3 U/ml): 32.5% | inhibition at 160 µg/mL ([2]; Oxytocin 3 × 10^-4 U/ml): 63.2% | inhibition at 160 µg/mL ([2]; Oxytocin 3 × 10^-5 U/ml): 100% | inhibition of Oxytocin induced contractions (in words) [2, 4]: dose dependent | inhibition at 160 µg/mL ([3]; ACH-2, compound 160 μg/ml, Ach 2,560 μg/ml): 67.4% | inhibition at 40 µg/mL ([3]; Ach 20 μg/ml): 100% | inhibition at 40 µg/mL ([3]; Ach 40 μg/ml): 83% | inhibition at 40 µg/mL ([3]; Ach 80 μg/ml): 79.7% | inhibition at 40 µg/mL ([3]; Ach 160 μg/ml): 46.8% | inhibition at 40 µg/mL ([3]; Ach 320 μg/ml): 2.8% | inhibition at 40 µg/mL ([3]; Ach 640 μg/ml): < 2.8% | inhibition at 80 µg/mL ([3]; Ach 20 μg/ml): 100% | inhibition at 80 µg/mL ([3]; Ach 40 μg/ml): 100% | inhibition at 80 µg/mL ([3]; Ach 80 μg/ml): 100% | inhibition at 80 µg/mL ([3]; Ach 160 μg/ml): 95.8% | inhibition at 80 µg/mL ([3]; Ach 320 μg/ml): 26.8% | inhibition at 80 µg/mL ([3]; Ach 640 μg/ml): < 26.8% | inhibition at 160 µg/mL ([3]; compound 160 μg/ml, Ach 20 μg/ml): 100% | inhibition at 160 µg/mL ([3]; compound 160 μg/ml, Ach 40 μg/ml): 100% | inhibition at 160 µg/mL ([3]; compound 160 μg/ml, Ach 80 μg/ml): 100% | inhibition at 160 µg/mL ([3]; compound 160 μg/ml, Ach 160 μg/ml): 100% | inhibition at 160 µg/mL ([3]; compound 160 μg/ml, Ach 320 μg/ml): 93.3% | inhibition at 160 µg/mL ([3]; compound 160 μg/ml, Ach 640 μg/ml): 93.6% | inhibition at 160 µg/mL ([3]; compound 160 μg/ml, Ach 1,280 μg/ml): 84.6% | inhibition at 160 µg/mL ([3]; compound 160 μg/ml, Ach 5,120 μg/ml): 61.2% | inhibition at 160 µg/mL ([3]; compound 160 μg/ml, Ach 10,240 μg/ml): 62.7% | inhibition of Acetylcholine chloride induced contractions (in words) [3, 4]: dose dependent
